Experiment: Stability study of bulk material (stability-indicating HPLC, storage under controlled temperature and humidity)
Format: physicochemical
Description: The stability of crystalline polymorphic forms or solvates of rimonabant hydrochloride of the present invention may be determined using conventional quantitative analytical methods. For example the stability of crystalline polymorph forms or solvates of rimonabant hydrochloride may be determined by using accelerated stability conditions, wherein the test compounds are stored under controlled conditions of temperature and humidity over known periods of time, e.g., 40° C./75% relative humidity. Quantitative analysis of the test compounds by high performance liquid chromatography method or by X-ray powder diffraction pattern, DSC, IR or TGA, against appropriate reference standards before, during and after the storage period allows the stability of the test compound to be determined.
The stability of polymorph forms or solvate forms (Form A, B, C, D and E) of crystalline rimonabant hydrochloride bulk material and tablets was assessed by storing samples for up to 6 or 12 weeks at 25° C./60% RH or 40° C./75% RH. Changes were monitored using a stability-indicating HPLC method. Results were calculated by normalized peak area (npa). Degradants were identified by comparison of their relative retention times against impurity standards.

Structure (SMILES): Cc1c(C(=O)NN2CCCCC2)nn(-c2ccc(Cl)cc2Cl)c1-c1ccc(Cl)cc1.Cl [Form D, N-piperidino-5-(4-chlorophenyl)-1-(2,4-dichlorophenyl)-4-methyl-3-pyrazolecarboxamide hydrochloride]
- stability (time) (bulk material, elevated temperatures and humidity): 3 months
- physical and chemical stability (solid state): physically and chemically stable
